From patent US20240190904A1, “Heteroaryl compounds as inhibitors of RIP2 kinase, composition and application thereof” (Accro Bioscience (HK) Limited, priority 2021, published 2024) come the findings set out here.

In brackets after ≈: the same amount, converted by molar mass.

One data set addresses RIP2 kinase (Homo sapiens (Human), UniProt O43353). The data set can be described thus: Binding affinity assay (Kd). The method, then: For most assays, kinase-tagged T7 phage strains were prepared in an E. coli host derived from the BL21 strain. E. coli were grown to log-phase and infected with T7 phage and incubated with shaking at 32° C. until lysis. The lysates were centrifuged and filtered to remove cell debris. The remaining kinases were produced in HEK-293 cells and subsequently tagged with DNA for qPCR detection. Streptavidin coated magnetic beads were treated with biotinylated small molecule ligands for 30 minutes at room temperature to generate affinity resins for kinase assays. The liganded beads were blocked with excess biotin and washed with blocking buffer (SeaBlock (Pierce), 1% BSA, 0.05% Tween 20, 1 mM DTT) to remove unbound ligand and to reduce non-specific binding. Binding reactions were assembled by combining kinases, liganded affinity beads, and test compounds in 1× binding buffer (20% SeaBlock, 0.17×PBS, 0.05% Tween 20, 6 mM DTT). Test compounds were prepared as 111× stocks in 100% DMSO. Kds were determined using an 11-point 3-fold compound dilution series with three DMSO control points. All compounds for Kd measurements are distributed by acoustic transfer (non-contact dispensing) in 100% DMSO. The compounds were then diluted directly into the assays such that the final concentration of DMSO was 0.9%. All reactions performed in polypropylene 384-well plate. Each was a final volume of 0.02 ml. The assay plates were incubated at room temperature with shaking for 1 hour and the affinity beads were washed with wash buffer (1×PBS, 0.05% Tween 20). The beads were then re-suspended in elution buffer (1×PBS, 0.05% Tween 20, 0.5 μM nonbiotinylated affinity ligand) and incubated at room temperature with shaking for 30 minutes. The kinase concentration in the eluates was measured by qPCR.
An 11-point 3-fold serial dilution of each test compound was prepared in 100% DMSO at 100× final test concentration and subsequently diluted to 1× in the assay (final DMSO concentration=1%). Most Kds were determined using a compound top concentration=30,000 nM. If the initial Kd determined was <0.5 nM (the lowest concentration tested), the measurement was repeated with a serial dilution starting at a lower top concentration.
Binding constants (Kds) were calculated with a standard dose-response curve using the Hill equation: […]
The Hill Slope was set to −1.
Curves were fitted using a non-linear least square fit with the Levenberg-Marquardt algorithm.

Data set [1] can be described thus: Thermodynamic solubility test. In kind it is physicochemical. The conditions noted are these: thermodynamic from solid; FaSSIF pH 6.5, thermodynamic. As for the experimental part:
• a. Add assay buffer into compound powder to make 4 mg/mL solution. • b. Sample tubes are shaken for 1 hour (1000 rpm), then equilibrated over night at room temperature. • c. Samples are centrifuged (10 min-12000 rpm) to precipitate un-dissolved particles. • d. Supernatants are transferred to new tubes. • e. Concentrations of the supernatants after centrifugation are determined by LCMSMS detection.

Data set [2] in a line: Protein binding test (dialysis), rat. The format is in vitro ADME. As to conditions: for fraction unbound at 5 h, 1 μM: rat plasma. As for the experimental part: (§1) • 1. Spiking Solutions of Test and Reference Compounds • 1.1 Solution A (0.5 mM): Add 10 μL of 10 mM stock solution into 190 μL of DMSO. • 1.2 Solution B (0.02 mM): Add 8 μL of Solution A into 192 μL of 0.05 M sodium phosphate buffer. The final DMSO concentration in Solution B is 4%. • 2. Preparation of Test and Reference Compounds • 2.1 Preload a 96-well plate with 380 μL aliquots of plasma in the wells designated for plasma and buffer, respectively. • 2.2 Spike 20 μL of Solution B (0.02 mM of test and reference compounds) into the pre-loaded plasma in the 96-well plate. The final test concentration is 1 μM containing 0.2% DMSO. • 3. Dialysis Sample Loading • 3.1 Preparing plasma against buffer system (duplicate): Apply aliquots of 100 μL of blank dialysis buffer to the receiver side of dialysis chambers. Then apply aliquots of 100 μL of the plasma spiked with test and reference compounds to the donor side of the dialysis chambers. • 3.2 Preparing T0 plasma samples for initial concentrations (duplicate): • 3.2.1 Aliquot 25 μL of the plasma spiked with test and reference compounds into a 96-well sample preparation plate as T0 plasma samples • 3.2.2 Mix the aliquots with same volume of blank buffer (50:50, v/v). • 3.2.3 Quench the samples with 200 μL of acetonitrile containing internal standard (IS). • 3.3 Cover the dialysis block with a plastic lid and place the entire apparatus in a shaker (60 rpm) for 5 hours at 37° C. • 3.4 Preparing dialyzed samples after 5-hour incubation: • 3.4.1 Aliquot 25 μL from both the donor sides and receiver sides of the dialysis apparatus into new sample preparation plates and mix the aliquots with same volume of opposite matrixes (blank buffer to plasma and vice versa). • 3.4.2 Quench the samples with 200 μL acetonitrile containing internal standard (IS). Vortex all the samples (from 0 h and 5 h) at 600 rpm for 10 min followed by centrifugation at 5594 g for 15 minutes (ThermoMultifuge×3R). • 3.4.3 Transfer 50 μL of the supernatants to a new 96-well plate and mix the samples with 50 μL of Milli-Q water. Cover the sample plate and store it in a freezer (−20° C.) until LC/MS/MS analysis.

Data set [3] in a line: Protein binding test (dialysis), human. As to conditions: for fraction unbound at 5 h, 1 μM: human plasma. The format is in vitro ADME. The method, then:
as §1

Data set [4] can be described thus: Protein binding test (dialysis), dog. The format is in vitro ADME. The conditions noted are these: for fraction unbound at 5 h, 1 μM: dog plasma. As for the experimental part:
as §1

For a further data set, the system named is MDP induced peritonitis. The experiment in a line: MDP (muramyl dipeptide) induced peritonitis, IL-6 by ELISA. As to conditions: mice, gavage, same dosage as GSK2983559 (10 mg/kg), 3 hours post MDP. In kind it is in vivo. As for the experimental part: Mice were divided into four groups Including normal group, DMSO group, positive control group (GSK2983559) and compound group. Mice were dosed by gavage with either GSK2983559 at 10 mg/kg or candidate compounds at 3, 10 mg/kg 30 minutes prior to MDP injection (100 μg/mouse, ip). At 3 hours post MDP administration, the blood sample was collected from ocular vein after anesthesia. IL-6 levels were detected by ELISA.

Data set [5] relates to IL-8 in THP-1 induced by MDP. The data set can be described thus: THP-1 cell assay, IL-8 ELISA after MDP. The format is cell-based. The conditions noted are these: Homo sapiens; test compounds 10 nM; THP-1, MDP induced. As for the experimental part:
Acute monoblastic and monocytic leukemia (THP-1) was obtained from ATCC (item NO. TIB-202™). The temperature of the sterile incubator is 37˜38° C., the osmotic pressure is 260˜320 mmol/L, the pH range is 7.2˜7.4, and the ratio of carbon dioxide gas is 5%.
Cells were seeded in 96-well plates. After an hour, cells were incubated with test compounds for 2 hours. MDP (10 μL) was added and incubated for 6 hours. The samples were centrifuged (3000 rmp/min) for 5 minutes. The concentration of IL-8 in the supernatants was detected by IL-8 ELISA.

RIP2 kinase, sequence (O43353 whole entry): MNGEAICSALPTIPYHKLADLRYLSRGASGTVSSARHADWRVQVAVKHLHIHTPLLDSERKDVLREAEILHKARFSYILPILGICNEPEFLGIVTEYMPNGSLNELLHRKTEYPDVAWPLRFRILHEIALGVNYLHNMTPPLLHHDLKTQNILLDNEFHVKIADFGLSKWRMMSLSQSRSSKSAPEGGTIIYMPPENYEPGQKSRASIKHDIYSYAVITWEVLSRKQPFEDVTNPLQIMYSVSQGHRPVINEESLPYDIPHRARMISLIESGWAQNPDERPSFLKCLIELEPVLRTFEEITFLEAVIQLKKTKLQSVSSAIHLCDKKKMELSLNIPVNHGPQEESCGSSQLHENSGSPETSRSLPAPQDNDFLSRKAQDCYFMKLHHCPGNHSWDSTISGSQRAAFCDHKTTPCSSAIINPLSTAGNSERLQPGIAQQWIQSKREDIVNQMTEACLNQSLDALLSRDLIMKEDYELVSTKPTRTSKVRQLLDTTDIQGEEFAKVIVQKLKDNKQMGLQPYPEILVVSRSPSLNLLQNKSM

Consider `COc1cc2nccc(Nc3ccc4scnc4c3)c2cc1P(C)(C)=O` [A6], for which binding on RIP2 kinase was put at a Kd of 3.1 nM. For the same compound, the solubility in data set [1] worked out at 6.12 mM (≈ 2340 µg/mL). Moreover, the results for the fraction unbound at 5 h, 1 μM in data set [2], in data set [3] and in data set [4] were 0.019, 0.124 and 0.138, respectively. For the same compound, in the data set on MDP induced peritonitis, the “inhibition of the level of IL-6 compared with positive control (in words)” value is given as “more effectively than positive control GSK2983559”. Also, in data set [5], the inhibition at 0.01 µM stood at 50%.

Regarding `CP(C)(=O)c1cc2c(Nc3ccc4scnc4c3)ccnc2cc1OCCO` [A7, (4-(benzo[d]thiazol-5-ylamino)-7-(2-hydroxyethoxy)quinolin-6-yl)dimethylphosphine oxide], on RIP2 kinase, binding was characterised by a dissociation constant (Kd) of 5.8 nM. The compound further registered a solubility in data set [1] of 5.31 mM (≈ 2200 µg/mL). Besides, at 0.01 µM the inhibition in data set [5] was 25%.

On RIP2 kinase, `COCCOc1cc2nccc(Nc3ccc4scnc4c3)c2cc1P(C)(C)=O` [A8] came in with a Kd of 2 nM. The solubility in data set [1] amounted to 1.04 mM (≈ 444 µg/mL). In data set [5], the inhibition at 0.01 µM is 51%.

On to `CC1(COc2cc3nccc(Nc4ccc5scnc5c4)c3cc2P(C)(C)=O)COC1` [A9], for which the dissociation constant Kd at RIP2 kinase was determined as 2.1 nM. Also, the solubility in data set [1] was found to be 0.283 mM (≈ 128 µg/mL). The compound further returned an inhibition at 0.01 µM in data set [5] of 55%.

For the compound `CP(C)(=O)c1cc2c(Nc3ccc4scnc4c3)ccnc2cc1O[C@H]1CCOC1` [A14], the dissociation constant Kd at RIP2 kinase amounted to 3 nM. Moreover, the fraction unbound at 5 h, 1 μM in data set [2] was 0.073; in data set [3], 0.177; in data set [4] it was 0.165.

Regarding `CP(C)(=O)c1cc2c(Nc3ccc4scnc4c3)ccnc2cc1O[C@@H]1CCOC1` [A15], on RIP2 kinase, the Kd was found to be 3 nM. Also, the free fraction (fraction unbound) at 5 h, 1 μM in data set [2] is 0.059; in data set [3], 0.188; in data set [4], 0.129.

`CP(C)(=O)c1cc2c(Nc3ccc4scnc4c3)ccnc2cc1OC1COC1` [A16] came in with a dissociation constant (Kd) on RIP2 kinase of 3.8 nM. Further, the figures for the unbound share (fraction unbound) at 5 h, 1 μM in data set [2], in data set [3] and in data set [4] were 0.069, 0.195 and 0.145, respectively.

Compound `CP(C)(=O)c1cc2c(Nc3ccc4scnc4c3)ccnc2cc1OC(F)(F)F` [A24] registered a dissociation constant Kd on RIP2 kinase of 5.2 nM. Further, in data set [2] (rat), the “protein binding in rat (in words)” value was “high protein binding”. Moreover, the free fraction (fraction unbound) at 5 h, 1 μM in data set [2] is 0.001; in data set [3], 0.013; in data set [4], 0.01. Besides, the “protein binding in human (in words)” value in data set [3] (human) is “high protein binding”. Also, the “protein binding in dog (in words)” value in data set [4] (dog) was “high protein binding”. Besides, in the data set on MDP induced peritonitis, the “inhibition of the level of IL-6 compared with positive control (in words)” value is reported as “more effectively than positive control GSK2983559”.
